Laboratory results: patent publication US20220339143A1, “TAK-925 FOR USE IN TREATING NARCOLEPSY” (Takeda Pharmaceutical Company Limited, priority 2019, published 2022)
Several values for one entry are separate records, joined by “and”; a condition that tells them apart may be missing. Equal entries are not always repeated. Where two headings read alike, the source gives them in different places.

Columns and labels:
[1] = Plasma concentrations in healthy subjects (Cohort 4); type: in vivo; settings: human, intravenous, 112 mg
Protocol: Pharmacokinetics: Concentrations of Compound A in plasma, and CSF, and pharmacokinetics parameters.
Following a single 9-hour IV infusion of 112 mg to healthy adult subjects in Cohort 4, Compound A plasma concentration-time profile was consistent with that observed in Cohort 1. At 6 hours after the start of infusion, mean ratio CSF/plasma concentration of Compound A was estimated to be about 2.8%.

[2] = Multiple-dose PK of intravenous Compound A in patients with NT1 (Cohorts B1, B2), plasma; type: in vivo, human; settings: for clearance: read-out: CL, Mean (converted)
Protocol: The purpose of the study was to evaluate the safety, tolerability, pharmacokinetics and pharmacodynamics of Compound A after multiple IV administration in patients with NT1. NT1 patients were evaluated in Cohort B1 and B2 (Table 19). Compound A or placebo were administered via IV infusion over 9 hours once daily for 7 days. A total of 13 patients with NT1 were treated with Compound A or placebo (4, 4, and 5 subjects in the placebo, Compound A 11 mg, and Compound A 44 mg groups, respectively). In this part, potential efficacy of Compound A was evaluated with MWT, ESS, KSS, night-time PSG (NPSG), cataplexy frequency assessment, and PGI-C as an exploratory PD assessment.
Blood samples used for PK analysis of Compound A was collected according to Table 20. See also FIG. 12 for whole schedules of study procedures.

patients with NT1 = test: PVT, multiple dose (Cohorts B1, B2); type: in vivo, human; settings: 9 hours postdose
[3] = system: patients with narcolepsy type 1 (NT1); test: Sleep latency in Maintenance of Wakefulness Test (MWT), single dose (Cohorts 5, 6, 7); type: in vivo, human; settings: for average sleep latency in MWT, mean (SD): NT1 (placebo 2.88); for Average Sleep Latency in MWT: Cohort 5, 6, 7
Protocol: In Part 2, NT1 patients received a single dose of Compound A or placebo administered as a continuous IV infusion over a 9-hour period during the day. A 40-minute Maintenance of Wakefulness Test (MWT) was conducted 4 times during the continuous IV infusion to assess effects on wakefulness in soporific conditions at 2, 4, 6 and 8 hours from start of infusion. Three cohorts of patients were enrolled (n=14 total).
The average sleep latency in the Maintenance Wakefulness Test (MWT)
Sleep related parameters in the MWT (sleep latency (SL) in each session).
The pharmacodynamics (PD) for sleepiness is shown in FIG. 8, which depicts the average post-dose MWT sleep latency for NT1 patients overall all dose time points. Due to the crossover design, some subjects in the placebo group were the same as some subjects in 5 mg-44.8 mg group.

[4] = human, plasma, intravenous, 11 mg, Day 7

COC(=O)N1CCC[C@H](NS(C)(=O)=O)[C@@H]1CO[C@H]1CC[C@@H](c2ccccc2)CC1 [Compound A, methyl (2R,3S)-3-((methylsulfonyl)amino)-2-(((cis-4-phenylcyclohexyl)oxy)methyl)piperidine-1-carboxylate]
concentration at 0.5 h ([1]; Mean): 119 ng/mL
concentration at 0.5 h ([1]; Median): 116 ng/mL
concentration at 1 h ([1]; Mean): 162 ng/mL
concentration at 1 h ([1]; Median): 156 ng/mL
concentration at 1.5 h ([1]; Mean): 193 ng/mL
concentration at 1.5 h ([1]; Median): 194 ng/mL
concentration at 2 h ([1]; Mean): 186 ng/mL
concentration at 2 h ([1]; Median): 183 ng/mL
concentration at 3 h ([1]; Mean): 216 ng/mL
concentration at 3 h ([1]; Median): 218 ng/mL
concentration at 4 h ([1]; Mean): 234 ng/mL
concentration at 4 h ([1]; Median): 224 ng/mL
concentration at 6 h ([1]; Mean): 234 ng/mL
concentration at 6 h ([1]; Median): 227 ng/mL
concentration at 8 h ([1]; Mean): 177 ng/mL
concentration at 8 h ([1]; Median): 168 ng/mL
concentration at 9 h ([1]; Mean): 184 ng/mL
concentration at 9 h ([1]; Median): 182 ng/mL
AUCtau D, Mean ([2]; 11 mg, Day 1): 15.00 ng·h/mL/mg
Cmax D Mean ([2]; 11 mg, Day 1): 1.660 ng/mL/mg
Vax, Mean ([2]; 11 mg, Day 1): 129.6 L
AUCtau D, Mean ([2]; 11 mg, Day 7): 16.70 ng·h/mL/mg
Cmax D Mean ([2]; 11 mg, Day 7): 1.868 ng/mL/mg
Cmin, Mean ([2]; 11 mg, Day 7): 0.3258 ng/mL
PTR, Mean ([2]; 11 mg, Day 7): 57.07
Vx, Mean ([2]; 11 mg, Day 7): 313.0 L
t½z Mean ([2]; 11 mg, Day 7): 3.595 h
Cmin, Geo Mean ([2]; 11 mg, Day 7 (N of Geo Mean 3)): 0.4061 ng/mL
AUCtau D, Mean ([2]; 44 mg, Day 1): 15.70 ng·h/mL/mg
Vax, Mean ([2]; 44 mg, Day 1): 135.0 L
Vz, Mean ([2]; 44 mg, Day 1): 316.2 L
AUCtau D, Mean ([2]; 44 mg, Day 7): 16.56 ng·h/mL/mg
Cmax D Mean ([2]; 44 mg, Day 7): 1.858 ng/mL/mg
Cmin, Mean ([2]; 44 mg, Day 7): 1.327 ng/mL
PTR, Mean ([2]; 44 mg, Day 7): 70.28
Vx, Mean ([2]; 44 mg, Day 7): 375.2 L
t½z Mean ([2]; 44 mg, Day 7): 4.222 h
drug accumulation ([2]; QD dosing, 9-hour IV infusion daily for 7 days): no drug accumulation was observed
dose proportionality of mean plasma systemic exposures ([2]; daily 9-hour IV infusions, 11 and 44 mg): generally increased in a dose proportional manner
AUC(0-inf) ([2]; human, plasma, intravenous, 11 mg, Day 1, read-out: AUCinf, Geo Mean): 166 ng·h/mL
AUC(0-inf) ([2]; human, plasma, intravenous, 11 mg, Day 1, read-out: AUCinf, Mean): 167 ng·h/mL
AUC(0-t) ([2]; human, plasma, intravenous, 11 mg, Day 1, read-out: AUClast, Geo Mean): 164 ng·h/mL
AUC ([2]; human, plasma, intravenous, 11 mg, Day 1, read-out: AUCtau, Geo Mean): 164 ng·h/mL
AUC ([2]; human, plasma, intravenous, 11 mg, Day 1, read-out: AUCtau, Mean): 165 ng·h/mL
Cmax ([2]; human, plasma, intravenous, 11 mg, Day 1, read-out: Cmax, Geo Mean): 18.2 ng/mL
Cmax ([2]; human, plasma, intravenous, 11 mg, Day 1, read-out: Cmax, Mean): 18.3 ng/mL
AUC(0-t) ([2]; human, plasma, intravenous, 11 mg, Day 7, read-out: AUClast, Geo Mean): 182 ng·h/mL
AUC ([2]; human, plasma, intravenous, 11 mg, Day 7, read-out: AUCtau, Geo Mean): 183 ng·h/mL
AUC ([2]; human, plasma, intravenous, 11 mg, Day 7, read-out: AUCtau, Mean): 184 ng·h/mL
Cmax at 7 days ([2]; human, plasma, intravenous, 11 mg, Day 7, read-out: Cmax, Geo Mean): 20.5 ng/mL
AUC(0-inf) ([2]; human, plasma, intravenous, 44 mg, Day 1, read-out: AUCinf, Mean): 697 ng·h/mL
AUC(0-t) ([2]; human, plasma, intravenous, 44 mg, Day 1, read-out: AUClast, Geo Mean): 682 ng·h/mL
AUC ([2]; human, plasma, intravenous, 44 mg, Day 7, read-out: AUCtau, Geo Mean): 723 ng·h/mL
AUC ([2]; human, plasma, intravenous, 44 mg, Day 7, read-out: AUCtau, Mean): 729 ng·h/mL
Cmax at 7 days ([2]; human, plasma, intravenous, 44 mg, Day 7, read-out: Cmax, Geo Mean): 81.2 ng/mL
Vd ([2]; human, plasma, intravenous, 11 mg, Day 1, read-out: Vz, Mean): 310 L
Tmax at 7 days [2, 4]: 5.17 h
clearance [2, 4]: 1010 mL/min
clearance ([2]; human, plasma, intravenous, 44 mg, Day 1): 1080 mL/min
Tmax ([2]; human, plasma, intravenous, 44 mg, Day 7): 4.93 h
AUC(0-t) ([2]; human, plasma, iv, 11 mg, Day 1, 9 h IV infusion QD, NT1, read-out: AUClast, Mean): 164 ng·h/mL
PVT, mean change from baseline in the number of lapses (patients with NT1; 11 mg, Day 1 (placebo 10.5)): −9.3
PVT, mean change from baseline in mean duration of the reciprocal 10% slowest reaction time (1/RT) (patients with NT1; 11 mg, Day 1 (placebo −0.49)): 0.88
PVT, mean change from baseline in the number of lapses (patients with NT1; 11 mg, Day 7 (placebo 11.8)): −14.8
PVT, mean change from baseline in mean duration of the reciprocal 10% slowest reaction time (1/RT) (patients with NT1; 11 mg, Day 7 (placebo −0.73)): 1.27
PVT, mean change from baseline in the number of lapses (patients with NT1; 44 mg, Day 1 (placebo 10.5)): −12.8
PVT, mean change from baseline in mean duration of the reciprocal 10% slowest reaction time (1/RT) (patients with NT1; 44 mg, Day 1 (placebo −0.49)): 0.51
PVT, mean change from baseline in the number of lapses (patients with NT1; 44 mg, Day 7 (placebo 11.8)): −12.8
PVT, mean change from baseline in mean duration of the reciprocal 10% slowest reaction time (1/RT) (patients with NT1; 44 mg, Day 7 (placebo −0.73)): −0.70
average sleep latency in MWT, LS mean difference (95% CI) minus placebo ([3]; 5 mg): 18.792 (11.987, 25.596) min
average sleep latency in MWT, mean (SD) ([3]; 5 mg single 9 h IV infusion): 22.38 (10.125) min and 22.4 min and 22.38 min
Sleep latency in MWT by visit, Mean ([3]; 5 mg, 10:00 (infusion start 7:45)): 25.25 min
Sleep latency in MWT by visit, Mean ([3]; 5 mg, 12:00): 29.75 min
Sleep latency in MWT by visit, Mean ([3]; 5 mg, 14:00): 8.92 min
Sleep latency in MWT by visit, Mean ([3]; 5 mg, 16:00): 25.58 min
average sleep latency in MWT, LS mean difference (95% CI) minus placebo ([3]; 11.2 mg): 36.063 (27.729, 44.396) min
subjects achieving the maximum sleep latency (40 min) in MWT ([3]; 11.2 mg): 3 out of 4
average sleep latency in MWT, mean (SD) ([3]; 11.2 mg single 9 h IV infusion): 37.59 (4.813) min and 37.6 min and 37.59 min
Sleep latency in MWT by visit, Mean ([3]; 11.2 mg, 10:00): 37.38 min
Sleep latency in MWT by visit, Mean ([3]; 11.2 mg, 14:00): 33.00 min
Sleep latency in MWT by visit, Mean ([3]; 11.2 mg, 16:00): 40.00 min
average sleep latency in MWT, LS mean difference (95% CI) minus placebo ([3]; 44.8 mg): 36.662 (27.344, 45.979) min
average sleep latency in MWT, mean (SD) ([3]; 44.8 mg single 9 h IV infusion): 40.00 (0.000) min and 40 min
subjects achieving the maximum sleep latency (40 min) in MWT ([3]; 44.8 mg, all four 40-min trials): 4 out of 4
Sleep latency in MWT by visit, Mean ([3]; 44.8 mg, 10:00): 40.00 min
Sleep latency in MWT by visit, Mean ([3]; 44.8 mg, 12:00): 40.00 min
Sleep latency in MWT by visit, Mean ([3]; 44.8 mg, 14:00): 40.00 min
Sleep latency in MWT by visit, Mean ([3]; 44.8 mg, 16:00): 40.00 min
effect on wakefulness as measured by time to sleep onset on the MWT ([3]; 5, 11.2, 44.8 mg, NT1 patients): clear dose dependent effect
Average Sleep Latency in MWT ([3]; Cmpd A 5 mg, Mean): 22.38 min
Average Sleep Latency in MWT ([3]; Cmpd A 5 mg, Median): 21.69 min
Average Sleep Latency in MWT ([3]; Cmpd A 11.2 mg, Mean): 37.59 min
Average Sleep Latency in MWT ([3]; Cmpd A 11.2 mg, Median): 40.00 min
Average Sleep Latency in MWT ([3]; Cmpd A 44.8 mg, Mean): 40.00 min
Average Sleep Latency in MWT ([3]; Cmpd A 44.8 mg, Median): 40.00 min
mean sleep latency in the lunch session (14:00) ([3]; higher dose groups of Compound A): over 30 min
